Measured values from patent publication US20260317324A1, “BIFUNCTIONAL COMPOUNDS FOR DEGRADING BRAF VIA UBIQUITIN PROTEOSOME PATHWAY” (Nurix Therapeutics, Inc., priority 2023, published 2026).

Assays:
Type in all cases: cell-based
BRAF V600E = biological target: T1, BRAF V600E (Homo sapiens, UniProt P15056, V600E); experiment: BRAF HiBiT degradation assay, C-terminal HiBiT-tagged BRAF V600E A375 cells (clone 1F10), Nano-Glo HiBiT Lytic assay; settings: A375 (BRAF V600E); for DC50: DC50 at 50%: fitted conc. at Y=50; for Dmax: A-375, percentage protein degraded at maximal compound effect relative to DMSO
T1 construct: endogenous C-terminal HiBiT fusion tag on BRAF V600E allele; endogenous in cells; host or cells: A375 clone 1F10 (CRISPR-Cas9 knock-in of the HiBiT tag; parental A375 from ATCC)
Method in brief: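 Luminescence from the Nano-Glo HiBiT lytic read-out gave % BRAF V600E remaining versus DMSO-treated tagged cells, with untagged A375 as background. Clone 1F10 cells (10,000/well, 24 h pre-culture) received compound at 1 μM–0.01 nM in half-log steps, 0.2% DMSO; curve fits gave DC50 at Y=50, plus observed Dmax.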

BRAF G469A = biological target: T2, BRAF G469A (Homo sapiens, UniProt P15056, G469A); experiment: BRAF HiBiT degradation assay, C-terminal HiBiT-tagged BRAF G469A overexpressed in HCT-116 BRAF−/− cells (clone 34), Nano-Glo HiBiT Lytic assay; settings: Class 2, BRAF G469A; for DC50: DC50 at 50%: fitted conc. at Y=50; for Dmax: HCT-116, percentage protein degraded at maximal compound effect relative to DMSO
T2 construct: Horizon Discovery (HCT-116 BRAF−/− cells); host or cells: HCT-116 BRAF−/− cells, clone 34, lentiviral transduction
Method in brief: (§1)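 Degradation was read by Nano-Glo HiBiT lytic luminescence, normalised to DMSO-treated tagged cells with wildtype HCT-116 as background. Test cells were lentiviral clones of HCT-116 BRAF−/− carrying HiBiT-tagged mutants in RPMI/10% FBS, given compound at 0.01 nM–1 μM in duplicate. Outputs are the curve-fitted concentration giving 50% degradation and the maximal observed degradation.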

BRAF D594G = biological target: T3, BRAF D594G (Homo sapiens, UniProt P15056, D594G); experiment: BRAF HiBiT degradation assay, C-terminal HiBiT-tagged BRAF D594G overexpressed in HCT-116 BRAF−/− cells (clone 63), Nano-Glo HiBiT Lytic assay; settings: BRAF D594G; for DC50: DC50 at 50%: fitted conc. at Y=50; for Dmax: HCT-116, percentage protein degraded at maximal compound effect relative to DMSO
T3 construct: Horizon Discovery (HCT-116 BRAF−/− cells); host or cells: HCT-116 BRAF−/− cells, clone 63, lentiviral transduction
Method in brief: as §1

BRAF G466V = biological target: T4, BRAF G466V (Homo sapiens, UniProt P15056, G466V); experiment: BRAF HiBiT degradation assay, C-terminal HiBiT-tagged BRAF G466V overexpressed in HCT-116 BRAF−/− cells (clone 8), Nano-Glo HiBiT Lytic assay; settings: BRAF G466V; for DC50: DC50 at 50%: fitted conc. at Y=50; for Dmax: HCT-116, percentage protein degraded at maximal compound effect relative to DMSO
T4 construct: Horizon Discovery (HCT-116 BRAF−/− cells); host or cells: HCT-116 BRAF−/− cells, clone 8, lentiviral transduction
Method in brief: as §1

T3 sequence (P15056 whole entry D594G): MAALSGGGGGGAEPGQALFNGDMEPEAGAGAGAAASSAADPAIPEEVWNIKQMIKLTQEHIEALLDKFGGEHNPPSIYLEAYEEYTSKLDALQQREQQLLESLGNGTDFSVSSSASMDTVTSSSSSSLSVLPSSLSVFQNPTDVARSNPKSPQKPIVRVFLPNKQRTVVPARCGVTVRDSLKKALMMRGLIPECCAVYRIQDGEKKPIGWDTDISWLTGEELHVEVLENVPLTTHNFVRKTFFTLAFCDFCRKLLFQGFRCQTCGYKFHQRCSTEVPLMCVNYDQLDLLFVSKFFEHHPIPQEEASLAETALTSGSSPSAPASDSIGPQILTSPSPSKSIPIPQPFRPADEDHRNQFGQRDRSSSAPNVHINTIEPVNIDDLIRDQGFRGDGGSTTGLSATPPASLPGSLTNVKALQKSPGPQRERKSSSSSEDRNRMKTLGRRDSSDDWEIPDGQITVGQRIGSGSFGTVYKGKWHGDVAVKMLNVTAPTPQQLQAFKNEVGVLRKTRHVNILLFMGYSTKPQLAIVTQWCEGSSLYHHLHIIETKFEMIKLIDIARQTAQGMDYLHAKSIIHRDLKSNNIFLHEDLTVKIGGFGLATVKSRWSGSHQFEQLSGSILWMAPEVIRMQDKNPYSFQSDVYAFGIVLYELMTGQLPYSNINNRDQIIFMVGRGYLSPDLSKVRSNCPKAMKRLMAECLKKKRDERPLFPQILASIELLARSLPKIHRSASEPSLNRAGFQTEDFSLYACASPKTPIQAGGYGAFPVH
T4 sequence (P15056 whole entry G466V): as the sequence (P15056 whole entry D594G) above, with G466V, G594D counted along it
T1 sequence (P15056 whole entry V600E, the tested form may be a part): as the sequence (P15056 whole entry D594G) above, with G594D, V600E counted along it
T2 sequence (P15056 whole entry G469A): as the sequence (P15056 whole entry D594G) above, with G469A, G594D counted along it

SMILES | DC50 (BRAF V600E) | Dmax (BRAF V600E) | DC50 (BRAF G469A) | Dmax (BRAF G469A) | DC50 (BRAF D594G) | Dmax (BRAF D594G) | DC50 (BRAF G466V) | Dmax (BRAF G466V)
CCCS(=O)(=O)Nc1cccc(-c2nc(C(C)(C)C)sc2-c2ccnc(Nc3ccc(C4CCN(CC5CCN(c6ccc(C7CCC(=O)NC7=O)cc6)CC5)CC4)cc3)n2)c1F (racemic) [Compound 167, Rac-N-[3-(2-tert-butyl-5-{2-[(4-{1-[(1-{4-[(3R)-2,6-dioxopiperidin-3-yl]phenyl}piperidin-4-yl)methyl]piperidin-4-yl}phenyl)amino]pyrimidin-4-yl}-1,3-thiazol-4-yl)-2-fluorophenyl]propane-1-sulfonamide] | 10 to 50 nM | 30 to 70% | > 500 nM | 30 to 70% | > 500 nM | 30 to 70% | > 500 nM | 30 to 70%
CCCS(=O)(=O)Nc1cccc(-c2nc(C(C)(C)C)sc2-c2ccnc(NC3CC4(C3)CN(CC3CCN(c5ccc(C(=O)NC6CCC(=O)NC6=O)cc5)CC3)C4)n2)c1F (racemic) [Compound 170, Rac-4-[4-({6-[(4-{2-tert-butyl-4-[2-fluoro-3-(propane-1-sulfonamido)phenyl]-1,3-thiazol-5-yl}pyrimidin-2-yl)amino]-2-azaspiro[3.3]heptan-2-yl}methyl)piperidin-1-yl]-N-[(3R)-2,6-dioxopiperidin-3-yl]benzamide] | 50 to 500 nM | 30 to 70% | > 500 nM | < 30% | > 500 nM | < 30% | > 500 nM | < 30%
CCCS(=O)(=O)Nc1cccc(-c2nc(C(C)(C)C)sc2-c2ccnc(Nc3ccc(C4CCN(CC5CCN(c6ccc(C(=O)NC7CCC(=O)NC7=O)cc6)CC5)CC4)cc3)n2)c1F (racemic) [Compound 171, Rac-4-{4-[(4-{4-[(4-{2-tert-butyl-4-[2-fluoro-3-(propane-1-sulfonamido)phenyl]-1,3-thiazol-5-yl}pyrimidin-2-yl)amino]phenyl}piperidin-1-yl)methyl]piperidin-1-yl}-N-[(3R)-2,6-dioxopiperidin-3-yl]benzamide] | 50 to 500 nM | 30 to 70% | > 500 nM | < 30% | > 500 nM | < 30% | > 500 nM | < 30%
CCCS(=O)(=O)Nc1cccc(-c2nc(C(C)(C)C)sc2-c2ccnc(Nc3ccc(C4CCN(C(=O)CN5CCN(c6cc(C7CCC(=O)NC7=O)ccn6)CC5)CC4)cc3)n2)c1F (racemic) [Compound 174, Rac-N-[3-(2-tert-butyl-5-{2-[(4-{1-[2-(4-{4-[(3R)-2,6-dioxopiperidin-3-yl]pyridin-2-yl}piperazin-1-yl)acetyl]piperidin-4-yl}phenyl)amino]pyrimidin-4-yl}-1,3-thiazol-4-yl)-2-fluorophenyl]propane-1-sulfonamide] | 10 to 50 nM | > 70% | > 500 nM | < 30% | > 500 nM | < 30% | > 500 nM | < 30%
CCCS(=O)(=O)Nc1cccc(-c2nc(C(C)(C)C)sc2-c2ccnc(Nc3ccc(C4CCN(CC5CCN(c6cncc(C7CCC(=O)NC7=O)c6)CC5)CC4)cc3)n2)c1F (racemic) [Compound 177, Rac-N-[3-(2-tert-butyl-5-{2-[(4-{1-[(1-{5-[(3R)-2,6-dioxopiperidin-3-yl]pyridin-3-yl}piperidin-4-yl)methyl]piperidin-4-yl}phenyl)amino]pyrimidin-4-yl}-1,3-thiazol-4-yl)-2-fluorophenyl]propane-1-sulfonamide] | 10 to 50 nM | > 70% | > 500 nM | < 30% | > 500 nM | < 30% | > 500 nM | < 30%
CCCS(=O)(=O)Nc1cccc(-c2nc(C3CCN(C(=O)C4(C)CCN(C(=O)C5CCN(c6ccc(C7CCC(=O)NC7=O)cc6)CC5)CC4)CC3)sc2-c2ccnc(NC(C)C)n2)c1F (racemic) [Compound 179, Rac-N-[3-(2-{1-[1-(1-{4-[(3R)-2,6-dioxopiperidin-3-yl]phenyl}piperidine-4-carbonyl)-4-methylpiperidine-4-carbonyl]piperidin-4-yl}-5-{2-[(propan-2-yl)amino]pyrimidin-4-yl}-1,3-thiazol-4-yl)-2-fluorophenyl]propane-1-sulfonamide] | < 10 nM | > 70% | > 500 nM | < 30% | < 10 nM | 30 to 70% | > 500 nM | 30 to 70%
CCCS(=O)(=O)Nc1cccc(-c2nc(C3CCN(C(=O)C4(C)CCN(C(=O)C5CCN(c6ccc(C7CCC(=O)NC7=O)cn6)CC5)CC4)CC3)sc2-c2ccncn2)c1F (racemic) [Compound 181, Rac-N-[3-(2-{1-[1-(1-{5-[(3R)-2,6-dioxopiperidin-3-yl]pyridin-2-yl}piperidine-4-carbonyl)-4-methylpiperidine-4-carbonyl]piperidin-4-yl}-5-(pyrimidin-4-yl)-1,3-thiazol-4-yl)-2-fluorophenyl]propane-1-sulfonamide] | < 10 nM | > 70% | > 500 nM | 30 to 70% | < 10 nM | > 70% | < 10 nM | > 70%
CCN(C)S(=O)(=O)Nc1cccc(-c2nc(C3CCN(C(=O)C4CCN(C(=O)C5CCN(c6ccc(C7CCC(=O)NC7=O)cn6)CC5)CC4)CC3)sc2-c2ccnc(NC(C)C)n2)c1F (racemic) [Compound 183, Rac-(3S)-3-{6-[4-(4-{4-[4-(3-{[ethyl(methyl)sulfamoyl]amino}-2-fluorophenyl)-5-{2-[(propan-2-yl)amino]pyrimidin-4-yl}-1,3-thiazol-2-yl]piperidine-1-carbonyl}piperidine-1-carbonyl)piperidin-1-yl]pyridin-3-yl}piperidine-2,6-dione] | < 10 nM | > 70% | > 500 nM | 30 to 70% | < 10 nM | 30 to 70% | < 10 nM | 30 to 70%
CCCS(=O)(=O)Nc1cccc(-c2nc(-c3ccc(N4CCN(CC5CCN(c6ccc(C7CCC(=O)NC7=O)cn6)CC5)CC4)cc3)sc2-c2ccnc(N)n2)c1F (racemic) [Compound 187, Rac-N-{3-[5-(2-aminopyrimidin-4-yl)-2-(4-{4-[(1-{5-[(3R)-2,6-dioxopiperidin-3-yl]pyridin-2-yl}piperidin-4-yl)methyl]piperazin-1-yl}phenyl)-1,3-thiazol-4-yl]-2-fluorophenyl}propane-1-sulfonamide] | < 10 nM | > 70% | 10 to 50 nM | 30 to 70% | < 10 nM | 30 to 70% | 10 to 50 nM | 30 to 70%
CCCS(=O)(=O)Nc1cccc(-c2nc(C3CCN(C(=O)C4CCN(C(=O)C5(C)CCN(c6ccc(C7CCC(=O)NC7=O)cn6)CC5)CC4)CC3)sc2-c2ccnc(N)n2)c1F (racemic) [Compound 193, Rac-N-{3-[5-(2-aminopyrimidin-4-yl)-2-{1-[1-(1-{5-[(3R)-2,6-dioxopiperidin-3-yl]pyridin-2-yl}-4-methylpiperidine-4-carbonyl)piperidine-4-carbonyl]piperidin-4-yl}-1,3-thiazol-4-yl]-2-fluorophenyl}propane-1-sulfonamide] | < 10 nM | > 70% | > 500 nM | 30 to 70% | < 10 nM | 30 to 70% | 10 to 50 nM | 30 to 70%
CCCS(=O)(=O)Nc1cccc(-c2nc(C3CCN(C(=O)C4(C)CCN(C(=O)CC5CCN(c6ccc(C7CCC(=O)NC7=O)cn6)CC5)CC4)CC3)sc2-c2ccnc(N)n2)c1F (racemic) [Compound 194, Rac-N-{3-[5-(2-aminopyrimidin-4-yl)-2-(1-{1-[2-(1-{5-[(3R)-2,6-dioxopiperidin-3-yl]pyridin-2-yl}piperidin-4-yl)acetyl]-4-methylpiperidine-4-carbonyl}piperidin-4-yl)-1,3-thiazol-4-yl]-2-fluorophenyl}propane-1-sulfonamide] | < 10 nM | > 70% | > 500 nM | < 30% | > 500 nM | 30 to 70% | > 500 nM | 30 to 70%
